Reference: patent US20240059700A1, “NOVEL DIACYLGLYCERIDE O-ACYLTRANSFERASE 2 INHIBITORS” (Merck Sharp & Dohme LLC, priority 2020, published 2024)

Target: human DGAT2 (hDGAT2) (Homo sapiens (Human), UniProt Q96PD7)
Experiment: DGAT2 Enzymatic Activity Assay
Type: biochemical
Details: membrane prep of Sf-9 insect cells expressing hDGAT2; 13C18-triolein product by LC/MS/MS
Method in brief: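 Membranes from Sf-9 cells infected with untagged hDGAT2 baculovirus (8 ng/μL) incubated at rt in 100 mM Tris pH 7.0, 20 mM MgCl2, 5% ethanol with 25 μM diolein and 5 μM 13C oleoyl-CoA. 13C18-triolein product quantified by LC/MS/MS against 13C21-triolein internal standard; IC50 by 4-parameter fit.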

Sequence of human DGAT2 (hDGAT2) (Q96PD7 whole entry): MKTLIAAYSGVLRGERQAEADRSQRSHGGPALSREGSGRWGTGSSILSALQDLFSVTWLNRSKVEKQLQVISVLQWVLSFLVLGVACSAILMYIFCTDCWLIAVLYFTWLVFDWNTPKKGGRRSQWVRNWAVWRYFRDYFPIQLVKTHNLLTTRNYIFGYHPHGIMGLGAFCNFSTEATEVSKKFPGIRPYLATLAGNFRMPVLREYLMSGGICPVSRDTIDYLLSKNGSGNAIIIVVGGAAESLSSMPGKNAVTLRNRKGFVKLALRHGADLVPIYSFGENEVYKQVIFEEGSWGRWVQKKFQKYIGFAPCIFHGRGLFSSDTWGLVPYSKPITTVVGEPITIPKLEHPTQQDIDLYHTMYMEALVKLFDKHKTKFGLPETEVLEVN

`CC(C)(O)Cn1nc(-c2cccc(C3CC3)c2)c2ncc(C(=O)NC3(C)CS(=O)(=O)C3)cc21` [Example 112, 3-(3-cyclopropylphenyl)-1-(2-hydroxy-2-methylpropyl)-N-(3-methyl-1,1-dioxidothietan-3-yl)-1H-pyrazolo[4,3-b]pyridine-6-carboxamide] showed an IC50 of 6 nM.
